Data as given in paper PMC9219824, “Antiplasmodial Cyclodecapeptides from Tyrothricin Share a Target with Chloroquine” (Antibiotics, 2022).
Like-named read-outs stand apart in the source and are kept apart here. Square brackets hold non-standard residues; d marks the D form. Peptide text beside a SMILES is read from it. Orn = NCCC[C@H](N)C(=O)O

Legend:
[1] = Toxicity to COS-1 cells, CellTiter Blue viability; type: cell-based; conditions: African green monkey, resazurin (CellTiter Blue), read-out: Toxicity LC50, COS Cells
Method: COS-1 cells were cultured in DMEM containing 0.9 g/L glucose, 0.12% NaHCO3, 10% fetal calf serum and 1% penicillin–streptomycin at 37 °C and under an atmosphere of 5% CO2 [95]. Twenty hours before the assay, the cells were transferred to 96-well plates at a density of 1.5 × 10^4 cells/well. The peptides from the dilution series were added to each well and incubated for 24 h. The cell viability was measured by adding 20 μL/well resazurin reagent (CellTiter Blue™), followed by four hours incubation at room temperature in the dark and measurement of the absorbance at 560 nm and 600 nm in the BioRad microplate reader.
(§1) The data obtained from spectrophotometric measurement of the plates following the lactate dehydrogenase (Malstat) assay were converted to percentage growth inhibition using the data analysis method described by Rautenbach et al.. The background was obtained from control wells in which the parasites were killed with 100 µM GS while total growth was from the wells that were not submitted to peptides. The background for the hemolysis evaluation was from wells in which the uninfected erythrocytes were lysed using 100 µM GS while growth control was from the wells with uninfected erythrocytes that received no peptides. The percentage COS-1 cell death (CellTiter Blue™ assay) was similarly calculated from absorbance values. All the dose–response assay data were evaluated using GraphPad Prism 4.03 (GraphPad Software, San Diego, CA, USA) followed by non-linear regression and sigmoidal curves were fitted (having variable slope and a constant difference of 100 between the top and bottom plateau). Following calculation of the 50% P. falciparum inhibitory concentration (IC50), 50% hemolytic concentration (HC50) and 50% lethal concentration (LC50) for COS-1 cells.

CQI P. falciparum D10 = experiment: microbe, parasite or virus in culture; type: cell-based, Plasmodium falciparum; conditions: for IC50: 48 h, Malstat, ± SEM; for Selectivity Index IC50D10/IC50 (COS cells): second value of cell
Method: (§2) The antimalarial assays were carried out according to the method of Nkhoma et al.. Once the cultures reached a parasitemia of 5–15%, they were synchronized four days prior to the day of the assay as described above which allowed the cultures to recover from the stress caused by the D-sorbitol. On the day of the assay, the parasitemia was determined following observation by light microscopy after Giemsa staining of a thin blood smear from the culture. The cultures at young trophozoite stage were diluted to 2% parasitemia and 2% hematocrit by addition of fresh RPMI medium and uninfected erythrocytes. This culture suspension was distributed in 96-well culture plates at 90 µL/well. The peptides and CQ diluted in culture medium lacking albumax II were added to the cultures in triplicate at 10 µL/well to give a total volume of 100 µL/well. Peptide solvent and medium (10 µL/well) was used as sterility control and in growth control and 10 μL 1.0 mM GS was used as positive control. Assays were carried out in at least three biological repeats each consisting of three technical repeats to ascertain reproducibility.
For the activity determination against parasites, plates were incubated at 37 °C for 48 h under an atmosphere of 3% CO2, 4% O2 and 93% N2. The culture suspension was frozen away at −20 °C until determination of the residual lactate dehydrogenase activity of the parasites by the Malstat assay, as adapted from Gomez et al..
(§3) For the Malstat assay, the plates were transferred to −80 °C for 1 h following overnight storage at −20 °C to ensure that all the suspensions in each well of the 96-well plate were frozen. The plates were then thawed at room temperature. The Malstat reagent consisted of 200 μL Triton X-100, 2 g L-lactic acid (substrate), 0.66 g Tris-HCl buffer and 0.011 g of 3-acetylpyridine adenine dinucleotide (APAD) (coenzyme for parasite lactate dehydrogenase) in 100 mL analytical quality water set to a pH of 9.0 [93]. The lactate dehydrogenase reaction was initiated by addition of a second solution, NBT/PES solution composed of 1.96 mM nitro blue tetrazolium (NBT) and 0.24 mM phenazine ethosulfate (PES) which was always protected from light. A 15 µL aliquot of the thawed and properly mixed suspension from the assay plates was added to 100 µL of the Malstat reagent, followed by addition of 25 µL of the NBT/PES solution. The reaction mixtures were then incubated at room temperature in the dark for 30 min followed by spectrophotometric measurement of the absorbance of the reduced APAD at 620 nm using a Model 680 Microplate reader from BioRad.
as §1

CQR P. falciparum Dd2 = experiment: microbe, parasite or virus in culture; type: cell-based, Plasmodium falciparum; conditions: for IC50: 48 h, Malstat, ± SEM, read-out: IC50, CQR P. falciparum Dd2; for Resistance Index IC50Dd2/IC503D7: first value of cell; for Resistance Index IC50Dd2/IC50D10: second value of cell
Method: as §2, with “Once the cultures reached a parasitemia of 5–15%, they were synchronized four days prior to the day of the assay as described above which allowed the cultures to recover from the stress caused by the D-sorbitol.” left out, “The peptides and CQ diluted in culture medium lacking albumax II were added to the cultures in triplicate at 10 µL/well to give a total volume of 100 µL/well.” left out
(§4) The culture suspension was frozen away at −20 °C until determination of the residual lactate dehydrogenase activity of the parasites by the Malstat assay, as adapted from Gomez et al..
as §3, with “The lactate dehydrogenase reaction was initiated by addition of a second solution, NBT/PES solution composed of 1.96 mM nitro blue tetrazolium (NBT) and 0.24 mM phenazine ethosulfate (PES) which was always protected from light.” left out
(§5) The data obtained from spectrophotometric measurement of the plates following the lactate dehydrogenase (Malstat) assay were converted to percentage growth inhibition using the data analysis method described by Rautenbach et al.. The background was obtained from control wells in which the parasites were killed with 100 µM GS while total growth was from the wells that were not submitted to peptides. […] The percentage COS-1 cell death (CellTiter Blue™ assay) was similarly calculated from absorbance values.

CQS P. falciparum 3D7 = experiment: microbe, parasite or virus in culture; type: cell-based, Plasmodium falciparum
Method: as §2, with “Once the cultures reached a parasitemia of 5–15%, they were synchronized four days prior to the day of the assay as described above which allowed the cultures to recover from the stress caused by the D-sorbitol.” left out, “The peptides and CQ diluted in culture medium lacking albumax II were added to the cultures in triplicate at 10 µL/well to give a total volume of 100 µL/well.” left out
as §4
as §3, with “The lactate dehydrogenase reaction was initiated by addition of a second solution, NBT/PES solution composed of 1.96 mM nitro blue tetrazolium (NBT) and 0.24 mM phenazine ethosulfate (PES) which was always protected from light.” left out
as §5

[2] = 48 h, Malstat, ± SEM, read-out: IC50, CQS P. falciparum 3D7

CC(C)C[C@@H]1NC(=O)[C@H](CCCN)NC(=O)[C@H](C(C)C)NC(=O)[C@H](Cc2c[nH]c3ccccc23)NC(=O)[C@H](CCC(N)=O)NC(=O)[C@H](CC(N)=O)NC(=O)[C@@H](Cc2c[nH]c3ccccc23)NC(=O)[C@H](Cc2c[nH]c3ccccc23)NC(=O)[C@@H]2CCCN2C(=O)[C@@H](Cc2ccccc2)NC1=O [TpcC, tryptocidine C] (cyclo(L[dF]PW[dW]NQWV[Orn]))
CC50 at 24 h [1]: 10000 nM | IC50 (CQI P. falciparum D10): 42 ± 17 nM | increase in activity towards the CQI D10 strain (CQI P. falciparum D10; compared with 3D7): about a three-fold increase in activity | Selectivity Index IC50D10/IC50 (COS cells) (CQI P. falciparum D10): 238 | IC50 (CQR P. falciparum Dd2): 398 ± 94 nM | Resistance Index IC50Dd2/IC503D7 (CQR P. falciparum Dd2): 3 | Resistance Index IC50Dd2/IC50D10 (CQR P. falciparum Dd2): 9 | IC50 (CQS P. falciparum 3D7; [2]): 126 ± 28 nM

CC(C)C[C@@H]1NC(=O)[C@H](CCCN)NC(=O)[C@H](C(C)C)NC(=O)[C@H](Cc2ccccc2)NC(=O)[C@H](CCC(N)=O)NC(=O)[C@H](CC(N)=O)NC(=O)[C@@H](Cc2ccccc2)NC(=O)[C@H](Cc2ccccc2)NC(=O)[C@@H]2CCCN2C(=O)[C@@H](Cc2ccccc2)NC1=O [PhcA, phenycidine A] (cyclo(FV[Orn]L[dF]PF[dF]NQ))
CC50 at 24 h [1]: 8000 nM | IC50 (CQI P. falciparum D10): 52 ± 17 nM | Selectivity Index IC50D10/IC50 (COS cells) (CQI P. falciparum D10): 154 | IC50 (CQR P. falciparum Dd2): 511 ± 96 nM | Resistance Index IC50Dd2/IC503D7 (CQR P. falciparum Dd2): 22 | Resistance Index IC50Dd2/IC50D10 (CQR P. falciparum Dd2): 10 | IC50 (CQS P. falciparum 3D7; CQS 3D7, 48 h): 23 ± 7 nM

CC(C)C[C@@H]1NC(=O)[C@H](CCCN)NC(=O)[C@H](C(C)C)NC(=O)[C@H](Cc2ccc(O)cc2)NC(=O)[C@H](CCC(N)=O)NC(=O)[C@H](CC(N)=O)NC(=O)[C@@H](Cc2ccccc2)NC(=O)[C@H](Cc2ccccc2)NC(=O)[C@@H]2CCCN2C(=O)[C@@H](Cc2ccccc2)NC1=O [TrcA, tyrocidine A] (cyclo(V[Orn]L[dF]PF[dF]NQY))
CC50 at 24 h [1]: 6000 nM | Selectivity Index IC50D10/IC50 (COS cells) (CQI P. falciparum D10): 51 | IC50 (CQR P. falciparum Dd2): 1800 ± 319 nM | IC50 (CQS P. falciparum 3D7; [2]): 41 ± 12 nM
